Measured values reported in US20090203671A1, “METHOD OF TREATING CANCER” (ABBOTT LABORATORIES, priority 2007, published 2009).

How the values were obtained:
[1] = tested on: D54MG glioblastoma multiforme cell line; assay: Cell proliferation assay (CellTiter-Glo), Aurora inhibitor combined with TRAIL; format: cell-based; conditions: Aurora inhibitor at 1 μM combined with TRAIL, 72 h, FIG. 1
Procedure: Cells were seeded into 96-well plates at 2,500 cells per well and allowed to adhere overnight. Compounds and TRAIL were added the following day, and cells were incubated at 37° C. for 72 h. […] Percent inhibition of viability was determined relative to cells treated with DMSO alone (0.1%). Data are representative of at least three independent experiments with each data point carried out in triplicate.

[2] = tested on: glioma cell lines where DR5 was induced; assay: TRAIL-mediated apoptosis in glioma cell lines after polyploidization; format: cell-based; conditions: glioma cell lines where DR5 was induced following polyploidization
Procedure: To identify candidate apoptosis-sensitizing genes that could be exploited in combination with Aurora kinase inhibitors in malignant glioma, global gene expression analysis in a D54MG glioma cell derivative treated with three Aurora kinases inhibitors chosen for their distinctive selectivities was carried out: MLN8054 (4-((9-chloro-7-(2,6-difluorophenyl)-5H-pyrimidol[5,4-d][2]benzazepin-2-yl)amino)benzoic acid, Aurora-A-selective), AZD1152-HQPA (Aurora-B-selective), and VX-680 (Aurora-A/B). This analysis identified the TRAIL death receptor, DR5, as an apoptosis sensitizing gene induced selectively following inhibition of Aurora-B kinase cancer cells. In glioma cell lines where DR5 was induced following polyploidization, the sensitivity, kinetics, and magnitude of TRAIL-mediated apoptosis were enhanced.

Molecule	anti-proliferative effect of combination with TRAIL [1]	sensitivity, kinetics, and magnitude of TRAIL-mediated apoptosis [2]
O=C(O)c1ccc(Nc2ncc3c(n2)-c2ccc(Cl)cc2C(c2c(F)cccc2F)=NC3)cc1 [MLN-8054, 4-((9-chloro-7-(2,6-difluorophenyl)-5H-pyrimidol[5,4-d][2]benzazepin-2-yl)amino)benzoic acid]	synergistic anti-proliferative effects	
Cc1cc(Nc2cc(N3CCN(C)CC3)nc(Sc3ccc(NC(=O)C4CC4)cc3)n2)n[nH]1 [VX-680/MK0457]	synergistic anti-proliferative effects	
CCN(CCO)CCCOc1ccc2c(Nc3cc(CC(=O)Nc4cccc(F)c4)[nH]n3)ncnc2c1 [AZD 1152-HQPA]	synergistic anti-proliferative effects	
TRAIL: tumor necrosis factor (TNF)-related apoptosis inducing ligand; binds death receptors DR4 and DR5 (protein, UniProt P50591 1-281, looked up) Tumor necrosis factor ligand …: MAMMEVQGGPSLGQTCVLIVIFTVLLQSLCVAVTYVYFTNELKQMQDKYSKSGIACFLKEDDSYWDPNDEESMNSPCWQVKWQLRQLVRKMILRTSEETISTVQEKQQNISPLVRERGPQRVAAHITGTRGRSNTLSSPNSKNEKALGRKINSWESSRSGHSFLSNLHLRNGELVIHEKGFYYIYSQTYFRFQEEIKENTKNDKQMVQYIYKYTSYPDPILLMKSARNSCWSKDAEYGLYSIYQGGIFELKENDRIFVSVTNEHLIDMDHEASFFGAFLVG		enhanced
